Assay results from PubChem BioAssay AID1918995 (Molecular Pharmacology Branch, DTP, NCI, 2023).

Tested on: 324938-238-R-J1-PDC complex spheroid growth, % test/control
Experiment: Anticancer human tumor 324938-238-R-J1-PDC patient-derived bladder carcinoma cell line growth inhibition [AhR]
Settings: for IC50: curve of first compound; for viability, T/C: stronger effect = lower value
Source text: Multicellular complex tumor spheroid response to aryl hydrocarbon receptor antagonists in combination with a variety of drugs and investigational agents in selected tumor cell lines
The current study was undertaken to assess response to aryl hydrocarbon receptor antagonists in combination with standard-of-care drugs and investigational agents in solid tumor complex spheroid models. Complex spheroids include a stromal component modeled by human endothelial cells (HUVEC) and fibroblasts modeled by human mesenchymal stem cells (MSCs). The concentration ranges selected for each drug and investigational agent were based upon clinically achievable concentrations if the clinical Cmax of the agent was known.
Compounds. The drugs and investigational agents: BAY 2416964 (NSC825713), GNF351 (NSC835774), CH-223191 (NSC835775), CPI-455 (NSC825282), aza-TdCyd (NSC777586), decitabine (NSC127716), belinostat (NSC758774), entinostat (NSC756642), pevonedistat (NSC761192), tazemetostat (NSC777109), talazoparib (NSC765396), olaparib (NSC753686), selinexor (NSC780203), nedisertib (M3814, NSC802822), bortezomib (NSC756655), venetoclax (NSC766270), doxorubicin (NSC123127), elimusertib (BAY189344, NSC800525), ceralasertib (AZD6738, NSC777638), TAK-243 (NSC785004), alisertib (NSC759677), etoposide (NSC141540), topotecan (NSC609699), eribulin (NSC707389), gemcitabine (NSC613327), carboplatin (NSC241240), cisplatin (NSC119875), and SN-38 (NSC673596) were obtained from the National Cancer Institute (NCI) Developmental Therapeutics Program Chemical Repository (32). The FDA-approved anticancer drug set is available from the Developmental Therapeutics Program at https://dtp.cancer.gov/organization/dscb/obtaining/available plates.htm. […] The stock solutions were prepared in dimethyl sulfoxide (DMSO, Sigma-Aldrich, St. Louis, MO, cat. D2650), except for the platinum compounds which were prepared in saline (Quality Biological, Gaithersburg, MD, cat. 114-055-101), at 800-fold the tested concentration and stored at -70 degrees C prior to their use. All drugs and investigational agents were tested over a range starting from a high concentration at or near the clinical Cmax and decreasing in half-log increments. If the clinical Cmax for an agent had not been determined, the highest concentration tested was 10 microM (Table 1).
Cell Culture. All cells were maintained in an incubator at 37 degrees C and 5% CO2 with 95% humidity. The PDC lines were cultured according to standard operating procedures established by the NCI PDMR (https://pdmr.cancer.gov). Briefly, all PDCs were thawed and cultured in Matrigel-coated flasks prepared with a working solution of 1X Ham's F-12 nutrient mix, without supplementation (Invitrogen, Waltham, MA, cat. 11765054), 100 U/mL penicillin-streptomycin (Invitrogen, cat. 15140122), and 2.5% Matrigel (Corning Inc., Corning, NY, cat. 354248) for the first three passages. All PDCs were cultured in complete DMEM/F-12 media containing advanced DMEM/F-12 (Invitrogen, cat. 12634028), 4.9% defined fetal bovine serum, heat inactivated (HyClone Laboratories Inc., Logan, UT, cat. SH30070.03HI), 389 ng/mL hydrocortisone (Sigma-Aldrich, cat. H4001), 9.7 ng/mL human EGF recombinant protein (Invitrogen, cat. PHG0313), 23.4 microg/mL adenine (Sigma-Aldrich, cat. A2786), 97.3 U/mL penicillin-streptomycin (Invitrogen, cat. 15140122), 1.9 mM L-glutamine (Invitrogen, cat. 25030081), and 9.7 microM Y-27632 dihydrochloride (Tocris Bioscience, Bristol, United Kingdom, cat. 1254). The PDCs were cultured in complete DMEM/F12 media without 10 microM Y-27632 dihydrochloride for at least two passages prior to the screen. The established cell lines NCI-H1341 and […] were cultured in DMEM/F-12, HEPES (Invitrogen, cat. 11330032), 5% defined fetal bovine serum (HyClone Laboratories Inc., cat. SH30070.03), ITS premix universal culture supplement [insulin (5 microg/mL), transferrin (5 microg/mL), and selenious acid (5 ng/mL)] […]

[1] = second compound 0.1 µM, first compound 0.0316 µM
[2] = second compound 0.1 µM, first compound 0.1 µM
[3] = second compound 0.1 µM, first compound 0.316 µM
[4] = second compound 0.1 µM, first compound 1 µM
[5] = second compound 0.1 µM, first compound 3.16 µM
[6] = second compound 0.1 µM, first compound 10 µM
[7] = second compound 0.316 µM, first compound 0.0316 µM
[8] = second compound 0.316 µM, first compound 0.1 µM
[9] = second compound 0.316 µM, first compound 0.316 µM
[10] = second compound 0.316 µM, first compound 1 µM
[11] = second compound 0.316 µM, first compound 3.16 µM
[12] = second compound 0.316 µM, first compound 10 µM
[13] = second compound 1 µM, first compound 0.0316 µM
[14] = second compound 1 µM, first compound 0.1 µM
[15] = second compound 1 µM, first compound 0.316 µM
[16] = second compound 1 µM, first compound 1 µM
[17] = second compound 1 µM, first compound 3.16 µM
[18] = second compound 1 µM, first compound 10 µM
[19] = second compound 3.16 µM, first compound 0.0316 µM
[20] = second compound 3.16 µM, first compound 0.1 µM
[21] = second compound 3.16 µM, first compound 0.316 µM
[22] = second compound 3.16 µM, first compound 1 µM
[23] = second compound 3.16 µM, first compound 3.16 µM
[24] = second compound 3.16 µM, first compound 10 µM
[25] = second compound 10 µM, first compound 0.0316 µM
[26] = second compound 10 µM, first compound 0.1 µM
[27] = second compound 10 µM, first compound 0.316 µM
[28] = second compound 10 µM, first compound 1 µM
[29] = second compound 10 µM, first compound 3.16 µM
[30] = second compound 10 µM, first compound 10 µM
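Also: spheroids exposed to agents for seven days before viability read.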

With CC(C)CC(NC(=O)C(Cc1ccccc1)NC(=O)c1cnccn1)B(O)O (stereo not given) + CC(CO)NC(=O)c1cc(-c2ccc(Cl)cc2)nn(-c2cnn(C)c2)c1=O the IC50 (second compound 0.1 µM) was 0.00178 µM, the IC50 (second compound 0.316 µM) was 0.00169 µM and the IC50 (second compound 1 µM) was 0.00175 µM. For the same molecule, the IC50 (second compound 3.16 µM) was 0.0014 µM, the IC50 (second compound 10 µM) was 0.00137 µM and the viability, T/C (second compound 0.1 µM, first compound 0.000949 µM) was 89%. For the same molecule, the viability, T/C (second compound 0.1 µM, first compound 0.003 µM) was 18.1%, the viability, T/C (second compound 0.1 µM, first compound 0.00949 µM) was 0.1% and the viability, T/C (second compound 0.1 µM, first compound 0.03 µM) was 0.06%. It also gave a viability, T/C (second compound 0.1 µM, first compound 0.0949 µM) of 0.07%, a viability, T/C (second compound 0.1 µM, first compound 0.3 µM) of 0.21% and a viability, T/C (second compound 0.316 µM, first compound 0.000949 µM) of 85.8%. It also gave a viability, T/C (second compound 0.316 µM, first compound 0.003 µM) of 14.3%, a viability, T/C (second compound 0.316 µM, first compound 0.00949 µM) of 0.09% and a viability, T/C (second compound 0.316 µM, first compound 0.03 µM) of 0.06%. The viability, T/C (second compound 0.316 µM, first compound 0.0949 µM) was 0.07%, the viability, T/C (second compound 0.316 µM, first compound 0.3 µM) was 0.16% and the viability, T/C (second compound 1 µM, first compound 0.000949 µM) was 86.2%. It also gave a viability, T/C (second compound 1 µM, first compound 0.003 µM) of 18.1%, a viability, T/C (second compound 1 µM, first compound 0.00949 µM) of 0.13% and a viability, T/C (second compound 1 µM, first compound 0.03 µM) of 0.12%. For the same molecule, the viability, T/C (second compound 1 µM, first compound 0.0949 µM) was 0.05%, the viability, T/C (second compound 1 µM, first compound 0.3 µM) was 0.17% and the viability, T/C (second compound 3.16 µM, first compound 0.000949 µM) was 69.1%. It also gave a viability, T/C (second compound 3.16 µM, first compound 0.003 µM) of 13.6%, a viability, T/C (second compound 3.16 µM, first compound 0.00949 µM) of 0.13% and a viability, T/C (second compound 3.16 µM, first compound 0.03 µM) of 0.07%. For the same molecule, the viability, T/C (second compound 3.16 µM, first compound 0.0949 µM) was 0.07%, the viability, T/C (second compound 3.16 µM, first compound 0.3 µM) was 0.17% and the viability, T/C (second compound 10 µM, first compound 0.000949 µM) was 67.1%. It also gave a viability, T/C (second compound 10 µM, first compound 0.003 µM) of 14.8%, a viability, T/C (second compound 10 µM, first compound 0.00949 µM) of 0.23% and a viability, T/C (second compound 10 µM, first compound 0.03 µM) of 0.2%. The viability, T/C (second compound 10 µM, first compound 0.0949 µM) was 0.2% and the viability, T/C (second compound 10 µM, first compound 0.3 µM) was 0.32%.

Nc1ccccc1NC(=O)c1ccc(CNC(=O)OCc2cccnc2)cc1 + CC(CO)NC(=O)c1cc(-c2ccc(Cl)cc2)nn(-c2cnn(C)c2)c1=O gave an IC50 (second compound 0.1 µM) of 3.83 µM, an IC50 (second compound 0.316 µM) of 2.54 µM and an IC50 (second compound 1 µM) of 3.99 µM. For the same molecule, the IC50 (second compound 3.16 µM) was 3.25 µM, the IC50 (second compound 10 µM) was 2.71 µM and the viability, T/C [1] was 116%. It also gave a viability, T/C [2] of 122%, a viability, T/C [3] of 99.1% and a viability, T/C [4] of 66.3%. It also gave a viability, T/C [5] of 63.9%, a viability, T/C [6] of 26.3% and a viability, T/C [7] of 118%. For the same molecule, the viability, T/C [8] was 112%, the viability, T/C [9] was 95.2% and the viability, T/C [10] was 61.4%. For the same molecule, the viability, T/C [11] was 52.4%, the viability, T/C [12] was 26.7% and the viability, T/C [13] was 99.2%. It also gave a viability, T/C [14] of 109%, a viability, T/C [15] of 102% and a viability, T/C [16] of 69.5%. The viability, T/C [17] was 61.6%, the viability, T/C [18] was 25.7% and the viability, T/C [19] was 88%. The viability, T/C [20] was 90.8%, the viability, T/C [21] was 84.9% and the viability, T/C [22] was 63.9%. The viability, T/C [23] was 56.4%, the viability, T/C [24] was 7.19% and the viability, T/C [25] was 82.2%. The viability, T/C [26] was 90.8%, the viability, T/C [27] was 80.9% and the viability, T/C [28] was 63.9%. For the same molecule, the viability, T/C [29] was 50% and the viability, T/C [30] was 1.83%.

For O=C(C=Cc1cccc(S(=O)(=O)Nc2ccccc2)c1)NO + CC(CO)NC(=O)c1cc(-c2ccc(Cl)cc2)nn(-c2cnn(C)c2)c1=O, the IC50 (second compound 0.1 µM) was 3.18 µM, the IC50 (second compound 0.316 µM) was 3.49 µM and the IC50 (second compound 1 µM) was 3.18 µM. It also gave an IC50 (second compound 3.16 µM) of 3.39 µM, an IC50 (second compound 10 µM) of 3.55 µM and a viability, T/C [1] of 103%. For the same molecule, the viability, T/C [2] was 108%, the viability, T/C [3] was 96.1% and the viability, T/C [4] was 67.4%. The viability, T/C [5] was 56.7%, the viability, T/C [6] was 3.34% and the viability, T/C [7] was 94%. It also gave a viability, T/C [8] of 92.7%, a viability, T/C [9] of 85.4% and a viability, T/C [10] of 73.5%. It also gave a viability, T/C [11] of 56%, a viability, T/C [12] of 10.6% and a viability, T/C [13] of 93.2%. It also gave a viability, T/C [14] of 93.9%, a viability, T/C [15] of 89.3% and a viability, T/C [16] of 65%. It also gave a viability, T/C [17] of 55.1%, a viability, T/C [18] of 6.82% and a viability, T/C [19] of 74.6%. It also gave a viability, T/C [20] of 83.9%, a viability, T/C [21] of 77.4% and a viability, T/C [22] of 67%. For the same molecule, the viability, T/C [23] was 54.4%, the viability, T/C [24] was 4.74% and the viability, T/C [25] was 70.6%. It also gave a viability, T/C [26] of 78.8%, a viability, T/C [27] of 76.9% and a viability, T/C [28] of 71.6%. For the same molecule, the viability, T/C [29] was 55.4% and the viability, T/C [30] was 2.36%.
